Test results reported in ChEMBL document CHEMBL4177695, “Identification of pyruvate dehydrogenase kinase 1 inhibitors with anti-osteosarcoma activity” (Bioorg Med Chem Lett, 2017).
Activity calls are given as the source filed them. The rule behind the calls is not given here.

Columns and labels:
[1] = biological target: T1, [Pyruvate dehydrogenase (acetyl-transferring)] kinase isozyme 1, mitochondrial (Homo sapiens, UniProt Q15118); test: Inhibition of recombinant human GST-tagged PDK1 expressed in baculovirus infected Sf9 cells at 10 uM using PDHA1 as substrate measured after 1 hr by ELISA relative to control
T1 sequence (Q15118 whole entry): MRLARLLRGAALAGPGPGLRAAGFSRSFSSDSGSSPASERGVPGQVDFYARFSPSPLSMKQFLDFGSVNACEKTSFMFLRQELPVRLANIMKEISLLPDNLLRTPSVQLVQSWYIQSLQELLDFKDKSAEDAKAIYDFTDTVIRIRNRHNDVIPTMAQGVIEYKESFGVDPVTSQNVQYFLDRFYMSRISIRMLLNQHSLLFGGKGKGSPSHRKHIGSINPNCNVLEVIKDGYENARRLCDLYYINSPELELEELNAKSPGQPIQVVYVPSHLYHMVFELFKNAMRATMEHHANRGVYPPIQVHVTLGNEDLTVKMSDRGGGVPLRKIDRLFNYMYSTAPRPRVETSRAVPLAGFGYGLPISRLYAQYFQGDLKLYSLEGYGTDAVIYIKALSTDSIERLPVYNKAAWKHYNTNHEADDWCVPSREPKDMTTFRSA

[2] = biological target: T1, [Pyruvate dehydrogenase (acetyl-transferring)] kinase isozyme 1, mitochondrial; test: Inhibition of recombinant human GST-tagged PDK1 expressed in baculovirus infected Sf9 cells using PDHA1 as substrate measured after 1 hr by ELISA
[3] = biological target: T1, [Pyruvate dehydrogenase (acetyl-transferring)] kinase isozyme 1, mitochondrial; test: Potency index, ratio of DCA IC50 to test compound IC50 for recombinant human GST-tagged PDK1 expressed in baculovirus infected Sf9 cells
[4] = biological target: [Pyruvate dehydrogenase (acetyl-transferring)] kinase isozyme 2, mitochondrial (Homo sapiens, UniProt Q15119); test: Inhibition of recombinant human GST-tagged PDK2 expressed in baculovirus infected Sf9 cells using PDHA1 as substrate measured after 1 hr by ELISA
[5] = biological target: T1, [Pyruvate dehydrogenase (acetyl-transferring)] kinase isozyme 1, mitochondrial; test: Inhibition of PDK1 in human MG63 cells assessed as reduction in pyruvate dehydrogenase complex phosphorylation at ser293 residue at 3 uM after 12 hrs by high content analysis relative to control; type: cell-based
[6] = biological target: T1, [Pyruvate dehydrogenase (acetyl-transferring)] kinase isozyme 1, mitochondrial; test: Inhibition of PDK1 in human MG63 cells assessed as reduction in pyruvate dehydrogenase complex phosphorylation at ser293 residue at 6 uM after 12 hrs by high content analysis relative to control; type: cell-based
[7] = biological target: T1, [Pyruvate dehydrogenase (acetyl-transferring)] kinase isozyme 1, mitochondrial; test: Inhibition of PDK1 in human MG63 cells assessed as reduction in pyruvate dehydrogenase complex phosphorylation at ser293 residue at 12 uM after 12 hrs by high content analysis relative to control; type: cell-based
[8] = biological target: T1, [Pyruvate dehydrogenase (acetyl-transferring)] kinase isozyme 1, mitochondrial; test: Inhibition of PDK1 in human MG63 cells assessed as reduction in pyruvate dehydrogenase complex phosphorylation at ser293 residue after 12 hrs by high content analysis; type: cell-based
[9] = biological target: T1, [Pyruvate dehydrogenase (acetyl-transferring)] kinase isozyme 1, mitochondrial; test: Inhibition of PDK1 in human MG63 cells assessed as reduction in pyruvate dehydrogenase complex phosphorylation at ser232 residue after 12 hrs by high content analysis; type: cell-based
[10] = biological target: T1, [Pyruvate dehydrogenase (acetyl-transferring)] kinase isozyme 1, mitochondrial; test: Inhibition of PDK1 in human MG63 cells assessed as reduction in pyruvate dehydrogenase complex phosphorylation at ser293 residue after 24 hrs by Western blot analysis; type: cell-based
[11] = biological target: T1, [Pyruvate dehydrogenase (acetyl-transferring)] kinase isozyme 1, mitochondrial; test: Inhibition of PDK1 in human MG63 cells assessed as reduction in pyruvate dehydrogenase complex phosphorylation at ser232 residue after 24 hrs by Western blot analysis; type: cell-based
[12] = tested on: MG-63; test: Anti-proliferative activity against human MG63 cells after 72 hrs by MTT assay; type: functional, cell-based; settings: for EC50: MG-63, 72 h
[13] = tested on: MG-63; test: Potency index, ratio of DCA EC50 to test compound EC50 for human MG63 cells; type: functional
[14] = biological target: T1, [Pyruvate dehydrogenase (acetyl-transferring)] kinase isozyme 1, mitochondrial; settings: 10 mM
Description: Inhibition of PDK1 in human MG63 cells assessed as reduction in pyruvate dehydrogenase complex phosphorylation at ser293 residue at 10 mM after 12 hrs by high content analysis

[15] = biological target: T1, [Pyruvate dehydrogenase (acetyl-transferring)] kinase isozyme 1, mitochondrial; settings: 10 mM; remark: listed apart in the source
Description: Inhibition of PDK1 in human MG63 cells assessed as reduction in pyruvate dehydrogenase complex phosphorylation at ser232 residue at 10 mM after 12 hrs by high content analysis

[16] = biological target: T1, [Pyruvate dehydrogenase (acetyl-transferring)] kinase isozyme 1, mitochondrial; settings: 10 mM; remark: listed apart in the source
Description: Inhibition of PDK1 in human MG63 cells assessed as reduction in pyruvate dehydrogenase complex phosphorylation at ser293 residue at 10 mM after 24 hrs by Western blot analysis

[17] = biological target: T1, [Pyruvate dehydrogenase (acetyl-transferring)] kinase isozyme 1, mitochondrial; settings: 10 mM; remark: listed apart in the source
Description: Inhibition of PDK1 in human MG63 cells assessed as reduction in pyruvate dehydrogenase complex phosphorylation at ser232 residue at 10 mM after 24 hrs by Western blot analysis

Structure (SMILES) | inhibition [1] [%] | IC50 [2] [µM] | Ratio IC50 [3] | IC50 [4] [µM] | inhibition [5] [%] | inhibition [6] [%] | inhibition [7] [%] | inhibition [8] | inhibition [9] | inhibition [10] | inhibition [11] | Activity [12] | EC50 [12] [µM] | Ratio EC50 [13] | inhibition [14] | inhibition [15] | inhibition [16] | inhibition [17]
COc1ccc(-c2c(C)c3ccc(OCCN4CCN(CCO)CC4)cc3oc2=O)cc1OC | 80.5 | 2.97 | > 1000 | 5.2 | 18.7 | 39.7 | 78.3 | Dose-dependent effect | Dose-dependent effect | Dose-dependent effect | Dose-dependent effect | Dose-dependent effect | 14.5 | >1000 |  |  |  | 
O=C(O)C(Cl)Cl [DICHLOROACETIC ACID] |  |  |  | 9000 |  |  |  |  |  |  |  |  | 15400 |  | Active | Active | Active | Active
O=c1c(-c2ccc(Br)cc2)coc2cc(OCCN3CCN(CCO)CC3)ccc12 | 83.3 | 3.14 | > 1000 | 10.9 | 17.6 | 49.3 | 75.3 | Dose-dependent effect | Dose-dependent effect | Dose-dependent effect | Dose-dependent effect | Dose-dependent effect | 11 | >1000 |  |  |  | 
